Values of other authors as cited in patent publication US8591947B2, “Dual controlled release dosage form” (Osmotica Kereskedelmi és Szolgáltató KFT, priority 2001, dated 2013).
Counter-ions that a name gives are not always drawn.

Row | Solubility of component in water (U.S.P. term) | SMILES
1 | slightly soluble | Fc1ccc([C@@H]2CCNC[C@H]2COc2ccc3c(c2)OCO3)cc1 [paroxetine HCl]
2 | slightly soluble | CCOC(=O)[C@H](CCc1ccccc1)N[C@@H](C)C(=O)N1[C@H](C(=O)O)C[C@@H]2CCC[C@@H]21 [ramipril]
3 | slightly soluble | OC(Cn1cncn1)(Cn1cncn1)c1ccc(F)cc1F [fluconazole]
4 | slightly soluble | CN[C@H]1CC[C@@H](c2ccc(Cl)c(Cl)c2)c2ccccc21 [sertraline HCl]
